{"source": "patent US20240251807A1", "about": "“SYSTEMS AND METHODS FOR DISPERSING ACTIVE INGREDIENTS” (Hazel Technologies, Inc., priority 2021, published 2024)", "assay_type_in_all_cases": "physicochemical", "key": {"[1]": {"test": "1-MCP buildup and retention in sealed vs unsealed apple storage room, box fan device", "details": "2-6° C., after 15 hours of running the fan, 0.5 kg activated carbon bed", "method": "This example describes release of an active ingredient into an enclosure using a device and system as described in this disclosure. Specifically, gaseous 1-MCP buildup and retention in an enclosure in the form of a sealed apple room was compared to buildup and retention in an unsealed apple storage room.\nA pump in the form of a 20″×20″ box fan was placed inside of a 33,264 cubic foot apple storage room kept at a temperature between 2-6° C., with the fan facing up and elevated several inches from the ground to allow space for air to enter the fan from below. The device was assembled by placing a metal air filter housing and a 20″×20″ air filter (Nordic Pure® Part 20201.8-3) on top of the fan, to which was added a 0.5 kg bed of a particulate delivery material in the form of activated carbon powder associated with an activate ingredient in the form of 1-MCP. Another identical 20″×20″ air filter was placed on top of the 1-MCP-loaded activated carbon and secured with a clamp. The apple storage room was vacated by the user and sealed before the fan was turned on. […] The C2H4 sensor was calibrated for 1-MCP by comparison with gas chromatography readings, and reported values in millivolts which were subtracted from baseline readings for the detector and then converted via the calibration curve to concentration measurements. […]"}, "[2]": {"test": "1-MCP release rate as a function of air speed", "details": "five air speeds and 0 m/s, 0.5 kg activated carbon powder, sealed room of approximately 30,000 cubic feet", "method": "This example describes the release rate of an active ingredient from a delivery material as a function of gaseous fluid flow rate through the delivery material. Specifically, the rate of gaseous 1-MCP release via pump-driven air flow was measured as a function of the air flow rate.\nIn a sealed apple storage room of approximately 30,000 cubic feet, 0.5 kg of a particulate delivery material in the form of activated carbon powder associated with an activated ingredient in the form of 1-MCP was held in front of pumps in the form of fans with known air speeds for greater than 2 hours each. The fan type and geometry was varied to access various air speeds. The concentration of 1-MCP in the atmosphere of the sealed apple storage room was monitored using measurements from a detector making use of the C2H4 sensor described in Example 1, and release rates were calculated at five different air speeds, as well as at a flow rate of 0 m/s."}, "[3]": {"test": "1-MCP release, dry forced-air (duct fan) vs water-based release in sealed apple storage room", "details": "sealed room 2-6° C.", "method": "This example describes a comparison of active ingredient release profiles and rates using a device and system of this disclosure as compared to an existing technique. Specifically, gaseous 1-MCP release via pump-driven gaseous fluid flow was compared to water-based release of 1-MCP.\nA pump in the form of a duct fan was placed inside of a 30,624 cubic foot apple storage room kept between 2-6° C. The fan was placed facing up onto two iron bars to allow space for air to enter below the fan. The device was assembled by placing a 12″ mesh sieve on top of the duct fan, to which was added a 1 kg bed of a particulate delivery material in the form of activated carbon powder associated with an activated ingredient in the form of 1-MCP. The sieve and delivery material was then contained by placing a pair of nylon stockings over the opening of the sieve and sealing it all with duct tape. The room was vacated by the user and sealed before the fan was turned on. […] At the same time, a comparative experiment was performed by placing, in an adjacent identical apple storage room, a bucket containing 12 L of distilled water and 4 aerators (each of which produced 0.024 cubic feet per min, 0.096 cubic feet per minute total). […] The 1-MCP levels in the sealed apple storage room for the second, comparative experiment was measured in the same manner as described above."}, "[4]": {"test": "1-MCP release with pump vs without pump in sealed apple storage room", "details": "box fan on vs off, first 240 minutes, 0.5 kg activated carbon bed, sealed room 2-6° C.", "method": "This example describes the effect of directing gaseous fluid flow through a delivery material on the rate of release of active ingredients. Specifically, gaseous 1-MCP release via pump-driven gas flow was compared to release in the absence of pump-driven flow.\nA pump in the form of a 20″×20″ box fan was placed inside of a 33,264 cubic foot apple storage room kept at a temperature between 2-6° C., with the fan facing up and elevated several inches from the ground to allow space for air to enter the fan from below. The device was assembled by placing a metal air filter housing and a 20″×20″ air filter (Nordic Pure® Part 20201.8-3) on top of the fan, to which was added a 0.5 kg bed of a particulate delivery material in the form of activated carbon powder associated with an activated ingredient in the form of 1-MCP. Another identical 20″×20″ air filter was placed on top of the 1-MCP-loaded activated carbon and secured with a clamp. The apple storage room was vacated by the user and sealed before the fan was turned on. At the same time, in an adjacent, identical apple storage room, a second, identical device described above was set up with a 0.5 kg bed of activated carbon powder associated with 1-MCP. However, the fan of this second device was not turned on."}}}
{"smiles": "CC1=CC1", "note": "[1-MCP, 1-methylcyclopropene]", "values": [{"measurement": "measured 1-MCP level in room", "setting": "[1]; sealed apple storage room", "value": "greater 1-MCP level"}, {"measurement": "measured 1-MCP level in room", "setting": "[1]; unsealed apple storage room (portal door open)", "value": "significant level of 1-MCP"}, {"measurement": "1-MCP release rate as a function of air speed", "setting": "[2]", "value": "greater rate when faster air speeds were used"}, {"measurement": "duration of sustained release", "setting": "[3]; dry forced-air release method, duct fan", "value": "> 170", "unit": "min"}, {"measurement": "increase in rate of release, dry forced-air release vs water-based release", "setting": "[3]; initial slope of concentration profiles, 1 kg activated carbon bed", "value": 16, "unit": "fold"}, {"measurement": "1-MCP release with pump compared to no pump", "setting": "[4]", "value": "released at a greater rate and in greater amounts"}]}
